According to US10696687B2, “Pyrazolo fused heterocyclic compounds as ERK inhibitors” (CHANGZHOU JIEKAI PHARMATECH CO., LTD., priority 2015, dated 2020):

test system: Colon cancer cells (Colo205 cell line); assay: Colo205 cell proliferation assay (MTT assay, WST-8 readout); type: cell-based; settings: Homo sapiens, COLO 205, 72 hours incubation, absorbance at 450 nm, read-out: Colo 205 cell growth inhibition IC50
Method: Compounds disclosed herein were tested for the inhibition of ERK2 by a Colo205 cell proliferation assay commonly known as MTT assay. In this assay, a complete media was prepared by adding 10% fetal bovine serum to RPMI-1640 medium (Life technology). Colon cancer cells (Colo205 cell line) were added to each of 88 wells of a 96 well plate at a seeding density of 5,000 cells/well/90 μL. The cells were allowed to attach to the plate by incubating at 37° C. for 24 hours. The compound was dissolved in DMSO (SIGMA). A solution of test compound was prepared in complete media by serial dilution to obtain the following concentrations: 500 μM, 150 μM, 50 μM, 15 μM, 5 μM, 1.5 μM, 0.5 μM, 0.15 μM and 0.05 μM. The test compound solution (10 μL) was added to each of 80 cell-containing wells. The final concentrations of the compound were following: 50 μM, 15 μM, 5 μM, 1.5 μM, 0.5 μM, 0.15 μM, 0.05 μM, 0.015 μM and 0.005 μM. The final concentration of DMSO is 0.5%. To the 8 remaining cell-containing wells, only complete media (containing 0.5% DMSO) was added to form a control group in order to measure maximal proliferation. To the remaining 8 empty wells, complete media was added to for a vehicle control group in order to measure background. The plates were incubated at 37° C. for 72 hours. 10 μL WST-8 solution (DOJINDO, Cell Counting KIT-8) was added to each well. The plates were further incubated at 37° C. for 2 hours, and then read for the absorbance using a microplate reader at 450 nm.

SMILES | IC50
COCCN1C[C@@H](NC(=O)c2cnc3[nH]nc(-c4ccnc(C)c4)c3c2)[C@H](c2ccccc2C(F)(F)F)C1 [Compound 22, N-((3S,4R)-1-(2-methoxyethyl)-4-(2-(trifluoromethyl)phenyl)pyrrolidin-3-yl)-3-(2-methylpyridin-4-yl)-1H-pyrazolo[3,4-b]pyridine-5-carboxamide] | 0.052 to 10 µM
Cc1cc(-c2n[nH]c3ncc(C(=O)N[C@@H]4C[C@H]4c4ccccc4Cl)cc23)ccn1 (relative stereo) [Compound 40, trans-N-(2-(2-chlorophenyl)cyclo-propyl)-3-(2-methylpyridin-4-yl)-1H-pyrazolo[3,4-b]pyridine-5-carboxamide] | 0.052 to 10 µM
Cc1cc(-c2n[nH]c3sc(C(=O)NC(c4ccc(F)cc4)C(C)(C)O)cc23)ccn1 (stereo not shown) [Compound 55, N-(1-(4-fluorophenyl)-2-hydroxy-2-methylpropyl)-3-(2-methylpyridin-4-yl)-1H-thieno[2,3-c]pyrazole-5-carboxamide] | 0.052 to 10 µM
COc1ncc(-c2n[nH]c3ncc(C(=O)N[C@H]4CN(C)C[C@@H]4c4ccccc4C(F)(F)F)cc23)cn1 (relative stereo) [Compound 17, trans-3-(2-methoxypyrimidin-5-yl)-N-(-1-methyl-4-(2-(trifluoromethyl)phenyl)pyrrolidin-3-yl)-1H-pyrazolo[3,4-b]pyridine-5-carboxamide] | 0.052 to 10 µM
Cc1cc(-c2n[nH]c3ncc(C(=O)N[C@H]4CN(C)C[C@@H]4c4cccc(Cl)c4)cc23)ccn1 (relative stereo) [Compound 10, trans-N-(4-(3-chlorophenyl)-1-methylpyrrolidin-3-yl)-3-(2-methylpyridin-4-yl)-1H-pyrazolo[3,4-b]pyridine-5-carboxamide] | 0.052 to 10 µM
Cc1cc(-c2n[nH]c3nc(NC(=O)N[C@H](C)c4ccccc4)ccc23)ccn1 [Compound 2, (R)-1-(3-(2-methylpyridin-4-yl)-1H-pyrazolo[3,4-b]pyridin-6-yl)-3-(1-phenylethyl)urea] | 0.052 to 10 µM
Cc1cc(-c2n[nH]c3ncc(C(=O)N[C@@H]4CN(C(C)C)C[C@H]4c4ccccc4C(F)(F)F)cc23)ccn1 [Compound 21, N-((3S,4R)-1-isopropyl-4-(2-(trifluoromethyl)phenyl)pyrrolidin-3-yl)-3-(2-methylpyridin-4-yl)-1H-pyrazolo[3,4-b]pyridine-5-carboxamide] | 0.052 to 10 µM
CCN1C[C@H](NC(=O)c2cnc3[nH]nc(-c4ccnc(C)c4)c3c2)[C@@H](c2ccccc2C(F)(F)F)C1 (relative stereo) [Compound 26, trans-N-(-1-ethyl-4-(2-(trifluoromethyl)phenyl)pyrrolidin-3-yl)-3-(2-methylpyridin-4-yl)-1H-pyrazolo[3,4-b]pyridine-5-carboxamide] | 0.052 to 10 µM
Cc1cc(-c2n[nH]c3ncc(C(=O)N[C@@H]4C[C@H]4c4ccccc4)cc23)ccn1 (relative stereo) [Compound 36, trans-3-(2-methylpyridin-4-yl)-N-(2-phenylcyclopropyl)-1H-pyrazolo[3,4-b]pyridine-5-carboxamide] | 0.052 to 10 µM
Cc1cc(-c2n[nH]c3ccc(C(=O)N[C@H]4CN(C)C[C@@H]4c4ccccc4F)cc23)ccn1 (relative stereo) [Compound 23, trans-N-(-4-(2-fluorophenyl)-1-methylpyrrolidin-3-yl)-3-(2-methylpyridin-4-yl)-1H-indazole-5-carboxamide] | 0.052 to 10 µM
Cc1cc(-c2n[nH]c3ncc(C(=O)N[C@H]4CN(C)C[C@@H]4c4ccccc4F)cc23)ccn1 (relative stereo) [Compound 16, trans-N-(-4-(2-fluorophenyl)-1-methylpyrrolidin-3-yl)-3-(2-methylpyridin-4-yl)-1H-pyrazolo[3,4-b]pyridine-5-carboxamide] | 0.052 to 10 µM
CN1C[C@H](NC(=O)c2cnc3[nH]nc(N4CCOCC4)c3c2)[C@@H](c2ccccc2C(F)(F)F)C1 (relative stereo) [Compound 9, trans-N-(1-methyl-4-(2-(trifluoromethyl)phenyl)pyrrolidin-3-yl)-3-morpholino-1H-pyrazolo[3,4-b]pyridine-5-carboxamide] | 0.052 to 10 µM
Cc1cc(-c2n[nH]c3ncc(NC(=O)N[C@@H](C)c4ccccc4)cc23)ccn1 [Compound 4, (S)-1-(3-(2-methylpyridin-4-yl)-1H-pyrazolo[3,4-b]pyridin-5-yl)-3-(1-phenylethyl)urea] | 0.052 to 10 µM
CCCN1C[C@H](NC(=O)c2cnc3[nH]nc(-c4ccnc(C)c4)c3c2)[C@@H](c2ccccc2C(F)(F)F)C1 (relative stereo) [Compound 29, trans-3-(2-methylpyridin-4-yl)-N-(-1-propyl-4-(2-(trifluoromethyl)phenyl)pyrrolidin-3-yl)-1H-pyrazolo[3,4-b]pyridine-5-carboxamide] | 0.052 to 10 µM
Cc1cc(-c2n[nH]c3ncc(C(=O)N[C@@H]4CN(C)C[C@H]4c4ccccc4)cc23)ccn1 (relative stereo) [Compound 38, Trans-N-(1-methyl-4-phenylpyrrolidin-3-yl)-3-(2-methylpyridin-4-yl)-1H-pyrazolo[3,4-b]pyridine-5-carboxamide] | 0.052 to 10 µM
Cc1cc(-c2n[nH]c3ncc(C(=O)N[C@H](CO)c4cccc(Cl)c4)cc23)ccn1 [Compound 1, (S)-N-(1-(3-chlorophenyl)-2-hydroxyethyl)-3-(2-methylpyridin-4-yl)-1H-pyrazolo[3,4-b]pyridine-5-carboxamide] | 0.052 to 10 µM
Cc1cc(-c2n[nH]c3ncc(C(=O)N[C@H]4CCC[C@@H]4c4ccccc4)cc23)ccn1 [Compound 32] | 0.052 to 10 µM
Cc1cc(-c2n[nH]c3ncc(C(=O)N[C@H]4CN(C)C[C@@H]4c4ccc(F)cc4F)cc23)ccn1 (relative stereo) [Compound 25, trans-N-(-4-(2,4-difluorophenyl)-1-methylpyrrolidin-3-yl)-3-(2-methylpyridin-4-yl)-1H-pyrazolo[3,4-b]pyridine-5-carboxamide] | 0.052 to 10 µM
Cc1cc(-c2n[nH]c3ccc(C(=O)N[C@@H]4CN(C)C[C@H]4c4ccccc4Cl)cc23)ccn1 [Compound 37, N-((3S,4R)-4-(2-chlorophenyl)-1-methylpyrrolidin-3-yl)-3-(2-methylpyridin-4-yl)-1H-indazole-5-carboxamide] | 0.052 to 10 µM
Cc1cc(-c2n[nH]c3ccc(C(=O)N[C@@H]4CN(C)C[C@H]4c4ccccc4Cl)cc23)ccn1 (relative stereo) [Compound 31, trans-N-(-4-(2-chlorophenyl)-1-methylpyrrolidin-3-yl)-3-(2-methylpyridin-4-yl)-1H-indazole-5-carboxamide] | 0.052 to 10 µM
COc1cc(-c2n[nH]c3ncc(C(=O)N[C@H]4CN(C)C[C@@H]4c4ccccc4C(F)(F)F)cc23)ccn1 (relative stereo) [Compound 13, trans-3-(2-methoxypyridin-4-yl)-N-(1-methyl-4-(2-(trifluoromethyl)phenyl)pyrrolidin-3-yl)-1H-pyrazolo[3,4-b]pyridine-5-carboxamide] | 0.052 to 10 µM
Cc1cc(-c2n[nH]c3ncc(C(=O)N[C@H]4CN(C)C[C@@H]4c4ccccc4Cl)cc23)ccn1 [Compound 34, N-((3R,4S)-4-(2-chlorophenyl)-1-methylpyrrolidin-3-yl)-3-(2-methylpyridin-4-yl)-1H-pyrazolo[3,4-b]pyridine-5-carboxamide] | 0.052 to 10 µM
Cc1cc(-c2n[nH]c3ccc(C(=O)N[C@@H]4CN(C)C[C@H]4c4ccccc4C(F)(F)F)cc23)ccn1 [Compound 39, N-((3S,4R)-1-methyl-4-(2-(trifluoromethyl)phenyl)pyrrolidin-3-yl)-3-(2-methylpyridin-4-yl)-1H-indazole-5-carboxamide] | 0.052 to 10 µM
Cc1cc(-c2n[nH]c3ncc(C(=O)N[C@@H]4CN(C)C[C@H]4c4ccccc4C(F)(F)F)cc23)ccn1 (racemic) [Compound 3, trans-N-(1-methyl-4-(2-(trifluoromethyl)phenyl)pyrrolidin-3-yl)-3-(2-methylpyridin-4-yl)-1H-pyrazolo[3,4-b]pyridine-5-carboxamide] | 0.052 to 10 µM
Cc1cc(-c2n[nH]c3ncc(C(=O)N[C@H]4CN(S(C)(=O)=O)C[C@@H]4c4ccccc4C(F)(F)F)cc23)ccn1 (stereo in doubt) [Compound 20, 3-(2-methylpyridin-4-yl)-N-(-1-(methylsulfonyl)-4-(2-(trifluoromethyl)phenyl)pyrrolidin-3-yl)-1H-pyrazolo[3,4-b]pyridine-5-carboxamide] | 0.052 to 10 µM
Cc1cc(-c2n[nH]c3ncc(C(=O)N[C@@H]4COC[C@H]4c4ccccc4)cc23)ccn1 [Compound 35, trans-3-(2-methylpyridin-4-yl)-N-(4-phenyltetrahydrofuran-3-yl)-1H-pyrazolo[3,4-b]pyridine-5-carboxamide] | 0.052 to 10 µM
Cc1cc(-c2n[nH]c3ncc(C(=O)N[C@@H]4CN(C)C[C@H]4c4ccccc4C(F)(F)F)cc23)ccn1 (single isomer, unassigned) [Compound 14] | 0.052 to 10 µM
Cc1cc(-c2n[nH]c3ccc(C(=O)N[C@H]4CN(C)C[C@@H]4c4ccccc4C(F)(F)F)cc23)ccn1 [Compound 41, N-((3R,4S)-1-methyl-4-(2-(trifluoromethyl)phenyl)pyrrolidin-3-yl)-3-(2-methylpyridin-4-yl)-1H-indazole-5-carboxamide] | 0.052 to 10 µM
